As usually defined, the solubility is how much of the substance goes into solution per volume. Low values mean little dissolved substance, high ones much dissolved substance.

Values after ≈ are worked out from the molar mass of the structure shown.

These results are taken from PMC9793461 (ADMET & DMPK, 2022).

Data set [1] in a line: Solubility of DEX in vegetable oils with cosolvents (shaker, HPLC). The format is physicochemical. To be noted: oil or lipid, thermodynamic from solid, 24 hours incubation. The method, then:
After centrifugation, 200 μL of supernatant was diluted with 600 μL of tetrahydrofuran and 800 μL of acetonitrile in vials for the HPLC analysis. All samples were prepared in triplicates. Castor oil combined with 20 % (v/v) of isopropanol and castor oil with 20 % (v/v) of Capryol® 90 were chosen as the best formulations for the following experiments.
Samples from the solubility and partitioning studies were analysed on HPLC system Agilent 1100/1200 series connected to diode array detector adjusted to 241 nm. Kinetex C18 column (4.6 x 50 mm, particles 2.6 μm and pore size 100 Å) by Phenomenex (USA), heated to 40 °C, was used. The chromatograms were obtained with a gradient elution, where acetonitrile and buffer pH 2.0 were components of the mobile phase. Injector temperature was adjusted at 35 °C, the flow rate at 1.8 ml/min and sample injection volume at 10 μL. […] The two working standard solutions were obtained by further diluting the stock solution. […] The second standard solution was prepared by diluting 1 mL of stock solution in 100 mL acetonitrile. It was used for DEX assay in solutions composed of four other oils.

For data set [2] the following is noted: cited from earlier work.
The conditions of data set [3]: phosphate buffer pH 7.4 with 10 % (v/v) ethanol; cited from earlier work.

Molecule `C[C@@H]1C[C@H]2[C@@H]3CCC4=CC(=O)C=C[C@]4(C)[C@@]3(F)[C@@H](O)C[C@]2(C)[C@@]1(O)C(=O)CO` [DEX, Dexamethasone] showed a solubility at 24 h in data set [1] (castor oil with 20 % (v/v) Capryol 90, 37 °C) of roughly 1200 µg/mL (≈ 3.06 mM). The solubility at 24 h in data set [1] (castor oil with 20 % (v/v) isopropanol, 37 °C) is roughly 2300 µg/mL (≈ 5.86 mM). In data set [2], the solubility in ethanol entry is reported as “sparingly soluble” and the solubility in water result was “practically insoluble”. In addition, the “solubility of DEX” value in data set [3] is 170 µg/mL.
